Test results taken from US11186564B2, “Dual NAV1.2/5HT2a inhibitors for treating CNS disorders” (Sunovion Pharmaceuticals Inc., priority 2016, dated 2021).

Legend:
[1] = molecular target: T1, recombinant human serotonin receptor 5-HT2A (Homo sapiens, UniProt P28223); assay: 5-HT2A antagonist Ca2+ assay in CHO-K1 cells (method A aequorin luminescence / method B FLIPR fluorescence); format: cell-based; details: antagonist mode vs EC80 of reference agonist, method A or B, read-out: 5HT2A IC50
T1 construct: expressed in transfected cells; method B: loaded with Ca2+ dye
T1 sequence (P28223 whole entry): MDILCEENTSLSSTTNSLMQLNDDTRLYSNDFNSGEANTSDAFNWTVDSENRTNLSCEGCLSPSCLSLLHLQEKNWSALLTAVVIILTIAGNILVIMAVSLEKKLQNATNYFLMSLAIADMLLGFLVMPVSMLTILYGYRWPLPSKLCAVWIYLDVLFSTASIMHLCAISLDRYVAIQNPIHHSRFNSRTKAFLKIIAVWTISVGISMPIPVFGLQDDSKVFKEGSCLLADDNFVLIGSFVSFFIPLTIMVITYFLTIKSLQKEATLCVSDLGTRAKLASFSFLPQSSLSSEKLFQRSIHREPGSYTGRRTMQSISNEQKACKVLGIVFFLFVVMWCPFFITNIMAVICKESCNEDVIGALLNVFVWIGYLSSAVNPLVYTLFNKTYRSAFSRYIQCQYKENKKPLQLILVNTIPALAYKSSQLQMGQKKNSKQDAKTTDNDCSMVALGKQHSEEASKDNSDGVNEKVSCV
Outline: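 Method A: CHO-K1 cells co-expressing human 5-HT2A and mitochondrial apoaequorin were given reference agonist at EC80 15 min after compound, with luminescence read. Method B: dye-loaded 5-HT2A CHO-K1 cells were pretreated with compound, then given serotonin at EC80, with FLIPR fluorescence read. IC50s came from nonlinear fits of percent inhibition.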

[2] = molecular target: human sodium channel NaV1.2 (Homo sapiens, UniProt Q99250); assay: NaV1.2 inhibition, automated patch-clamp (Q-Patch HTX), slow inactivated state (state C); format: cell-based; details: hNaV1.2 CHO cells, slow inactivated state; for IC50: read-out: NaV1.2 IC50; for inhibition at 1 µM: 1 μM compound, read-out: NaV1.2 (% inh), 1 μM; for inhibition at 10 µM: 10 μM compound, read-out: NaV1.2 (% inh), 10 μM
human sodium channel NaV1.2, sequence (Q99250 whole entry): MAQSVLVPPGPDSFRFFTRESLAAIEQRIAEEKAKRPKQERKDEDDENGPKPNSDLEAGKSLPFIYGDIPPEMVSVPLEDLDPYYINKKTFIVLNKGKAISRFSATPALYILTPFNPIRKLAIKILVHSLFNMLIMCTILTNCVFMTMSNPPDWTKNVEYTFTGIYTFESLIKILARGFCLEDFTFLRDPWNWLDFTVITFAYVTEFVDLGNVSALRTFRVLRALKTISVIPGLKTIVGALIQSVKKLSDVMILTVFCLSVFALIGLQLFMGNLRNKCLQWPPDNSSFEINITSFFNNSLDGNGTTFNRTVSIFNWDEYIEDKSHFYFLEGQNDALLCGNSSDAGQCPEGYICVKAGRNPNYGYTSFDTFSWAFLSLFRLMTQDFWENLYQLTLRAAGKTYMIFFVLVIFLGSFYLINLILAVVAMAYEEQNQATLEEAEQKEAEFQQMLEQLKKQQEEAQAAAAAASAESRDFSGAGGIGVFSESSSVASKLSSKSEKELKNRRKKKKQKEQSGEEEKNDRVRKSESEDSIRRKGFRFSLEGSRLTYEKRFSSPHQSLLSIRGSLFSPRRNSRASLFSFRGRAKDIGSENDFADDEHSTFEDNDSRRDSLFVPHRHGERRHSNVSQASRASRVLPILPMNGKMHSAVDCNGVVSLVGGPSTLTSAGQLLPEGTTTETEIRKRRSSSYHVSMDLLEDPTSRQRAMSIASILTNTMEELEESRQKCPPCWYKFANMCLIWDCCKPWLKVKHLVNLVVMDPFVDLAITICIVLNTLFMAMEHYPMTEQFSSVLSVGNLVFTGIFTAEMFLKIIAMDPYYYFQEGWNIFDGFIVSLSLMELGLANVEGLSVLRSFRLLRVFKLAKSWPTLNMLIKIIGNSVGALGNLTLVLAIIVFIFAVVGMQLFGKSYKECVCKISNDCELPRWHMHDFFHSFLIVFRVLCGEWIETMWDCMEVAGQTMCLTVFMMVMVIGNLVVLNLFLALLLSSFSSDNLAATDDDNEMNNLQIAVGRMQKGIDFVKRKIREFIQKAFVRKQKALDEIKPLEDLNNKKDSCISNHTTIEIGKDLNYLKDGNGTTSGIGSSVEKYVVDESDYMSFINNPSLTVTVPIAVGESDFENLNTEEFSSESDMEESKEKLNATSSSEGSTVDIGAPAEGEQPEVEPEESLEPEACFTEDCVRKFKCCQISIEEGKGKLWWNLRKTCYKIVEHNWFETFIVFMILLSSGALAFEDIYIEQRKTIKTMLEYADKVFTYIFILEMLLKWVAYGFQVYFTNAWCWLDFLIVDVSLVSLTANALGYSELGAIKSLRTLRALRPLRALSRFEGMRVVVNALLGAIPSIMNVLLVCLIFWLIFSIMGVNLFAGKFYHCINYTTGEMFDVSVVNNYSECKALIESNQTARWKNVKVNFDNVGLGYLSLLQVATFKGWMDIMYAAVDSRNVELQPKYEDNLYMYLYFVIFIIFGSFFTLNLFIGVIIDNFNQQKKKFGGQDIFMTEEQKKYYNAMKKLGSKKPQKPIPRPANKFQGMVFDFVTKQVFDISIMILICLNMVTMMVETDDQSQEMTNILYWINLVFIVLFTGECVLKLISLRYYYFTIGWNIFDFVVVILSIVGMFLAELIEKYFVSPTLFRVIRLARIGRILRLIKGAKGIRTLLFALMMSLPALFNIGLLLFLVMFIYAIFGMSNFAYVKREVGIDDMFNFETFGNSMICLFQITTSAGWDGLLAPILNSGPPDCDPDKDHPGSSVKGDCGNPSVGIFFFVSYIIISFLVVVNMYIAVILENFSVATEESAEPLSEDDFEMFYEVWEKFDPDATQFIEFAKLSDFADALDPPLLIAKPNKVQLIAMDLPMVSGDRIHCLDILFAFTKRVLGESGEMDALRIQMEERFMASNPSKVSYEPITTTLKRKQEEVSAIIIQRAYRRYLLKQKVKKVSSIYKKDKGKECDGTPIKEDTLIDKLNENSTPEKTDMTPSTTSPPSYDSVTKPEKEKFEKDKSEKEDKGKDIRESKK
Outline: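 CHO K-1 cells stably expressing human NaV1.2, whole-cell automated patch clamp, holding −100 mV; slow-inactivated state (state C) read at a 5 ms step to 0 mV after 10 s at −50 mV and 15 ms at −90 mV. Percent inhibition vs vehicle; IC50 by nonlinear least-squares fit.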

SMILES | IC50 [1] | IC50 [2] | inhibition at 1 µM [2] | inhibition at 10 µM [2]
COc1ccccc1O[C@H]1CCN(CC2Cc3ccccc3C2)[C@H](C)C1 [Example 141, (2R,4S)-1-((2,3-dihydro-1H-inden-2-yl)methyl)-4-(2-methoxyphenoxy)-2-methylpiperidine] | 200 nM | 1010 nM |  | 
COc1ccccc1OC1CCN(CC2c3ccccc3OC2(C)C)CC1 (centres unmarked) [Example 129, 1-((2,2-dimethyl-2,3-dihydrobenzofuran-3-yl)methyl)-4-(2-methoxyphenoxy)piperidine] | 400 nM | 1060 nM |  | 
COc1ccc2c(c1)C(CN1CCC(OCc3ccccc3C)CC1)CC2 (centres unmarked) [Example 242, 1-((6-methoxy-2,3-dihydro-1H-inden-1-yl)methyl)-4-((2-methylbenzyl)oxy)piperidine] | 90 nM | 230 nM |  | 
COc1cccc(CCN2CCC3(CCc4ccccc4O3)CC2)c1 [Example 429, 1′-(3-methoxyphenethyl) spiro[chromane-2,4′-piperidine]] | 370 nM | 1340 nM |  | 
Fc1ccc(O[C@H]2CCCN(CC3CCc4ccccc43)C2)cc1 (stereo partly drawn) [Example 254, (3S)-1-((2,3-dihydro-1H-inden-1-yl)methyl)-3-(4-fluorophenoxy)piperidine] | 520 nM | 770 nM |  | 
O[C@H](CO[C@@H]1CCCc2ccccc21)CN1CC[C@@H](Oc2ccc(F)cc2)C1 [Example 52, (S)-1-((R)-3-(4-fluorophenoxy)pyrrolidin-1-yl)-3-(((R)-1,2,3,4-tetrahydronaphthalen-1-yl)oxy)propan-2-ol] | 140 nM | 1690 nM |  | 
Cc1cccc(N2CCN(CC(O)COC3COc4ccccc43)CC2)c1C (centres unmarked) [Example 80, 1-((2,3-dihydrobenzofuran-3-yl)oxy)-3-(4-(2,3-dimethylphenyl)piperazin-1-yl)propan-2-ol] | 60 nM | 170 nM |  | 
OC(COC1CCCCC1)CN1CCCC2(CCN(c3ccccc3)C2)C1 (centres unmarked) [Example 356, 1-(cyclohexyloxy)-3-(2-phenyl-2,7-diazaspiro[4.5]decan-7-yl)propan-2-ol] | 250 nM | 610 nM |  | 
OC(CO[C@@H]1CCCc2ccccc21)CN1CC[C@@H](Oc2ccc(F)cc2)C1 (stereo partly drawn) [Example 50, 1-((R)-3-(4-fluorophenoxy)pyrrolidin-1-yl)-3-(((R)-1,2,3,4-tetrahydronaphthalen-1-yl)oxy)propan-2-ol] | 60 nM | 1290 nM |  | 
O=C1c2cccnc2CN1CCN1CCC(Oc2ccc(F)cc2)CC1 [Example 186, 6-(2-(4-(4-fluorophenoxy)piperidin-1-yl)ethyl)-6,7-dihydro-5H-pyrrolo[3,4-b]pyridin-5-one] | 10 nM |  | -3% | 
Fc1ccc(OC2CCN(CCC3CCCCO3)CC2)cc1 (centres unmarked) [Example 168, 4-(4-fluorophenoxy)-1-(2-(tetrahydro-2H-pyran-2-yl)ethyl)piperidine] | 130 nM |  | 2% | 
Fc1ccc(OC2CCN(CC3CCOc4ccccc43)CC2)cc1 (centres unmarked) [Example 165, 1-(chroman-4-ylmethyl)-4-(4-fluorophenoxy)piperidine] | 20 nM | 910 nM |  | 
COc1ccccc1O[C@@H]1CCN(CC2Cc3ccccc3C2)[C@H](C)C1 [Example 140, (2R,4R)-1-((2,3-dihydro-1H-inden-2-yl)methyl)-4-(2-methoxyphenoxy)-2-methylpiperidine] | 630 nM | 510 nM |  | 
c1ccc(O[C@H]2COC3(C2)CN(C[C@H]2CCc4ccccc42)C3)cc1 (single isomer, unassigned) [Compound 365] | 220 nM | 2180 nM |  | 
COc1ccccc1OC1CCN(CC2Cc3ccccc3C2)CC1 [Example 136, 1-((2,3-dihydro-1H-inden-2-yl)methyl)-4-(2-methoxyphenoxy)piperidine] | 60 nM |  | 50% | 
N#Cc1ccccc1OC1CCN(CC2Cc3cccnc3C2)CC1 (centres unmarked) [Example 138, 2-((1-((6,7-dihydro-5H-cyclopenta[b]pyridin-6-yl)methyl)piperidin-4-yl)oxy) benzonitrile] | 130 nM |  | 10% | 
c1ccc(OC2CCN(CCO[C@@H]3CCc4ccccc43)CC2)cc1 [Example 218, (R)-1-(2-((2,3-dihydro-1H-inden-1-yl)oxy)ethyl)-4-phenoxypiperidine] | 440 nM |  |  | 72%
OC1(c2ccccc2)COC2(CCN(CC3CCc4ccccc43)CC2)C1 (centres unmarked) [Example 374, 8-((2,3-dihydro-1H-inden-1-yl)methyl)-3-phenyl-1-oxa-8-azaspiro[4.5]decan-3-ol] | 250 nM |  | 9% | 
Fc1ccc(OC2CCN(CC3CCc4cccnc43)CC2)cc1 (centres unmarked) [Example 128, 7-((4-(4-fluorophenoxy)piperidin-1-yl)methyl)-6,7-dihydro-5H-cyclopenta[b]pyridine] | 50 nM |  |  | 72%

SMILES | IC50 [1] | IC50 [2] | inhibition at 1 µM [2] | inhibition at 10 µM [2]
C[C@@H]1C[C@@]2(CCc3ccccc3O2)CCN1CCN1CCc2ccccc2C1=O [Example 426, 2-(2-((2R,2′R)-2′-methylspiro[chromane-2,4′-piperidin]-1′-yl)ethyl)-3,4-dihydroisoquinolin-1(2H)-one] | 160 nM |  | 41% | 
c1ccc(OC2CCN(CCOc3ccc4cccnc4c3)CC2)cc1 [Example 232, 7-(2-(4-phenoxypiperidin-1-yl)ethoxy)quinoline] | 220 nM |  |  | 76%
O=C1c2ccccc2CCN1CCN1C[C@H]2CC[C@@H](C1)N2c1ccccc1 [Example 297, 2-(2-((1R,5S)-8-phenyl-3,8-diazabicyclo[3.2.1]octan-3-yl)ethyl)-3,4-dihydroisoquinolin-1(2H)-one] | > 16700 nM |  | -4% | 
COc1ccccc1N1CCN(CC(O)COc2cccc3ccccc23)CC1 (centres unmarked) [Example 92, 1-(4-(2-methoxyphenyl)piperazin-1-yl)-3-(naphthalen-1-yloxy)propan-2-ol] | 230 nM | 10 nM |  | 
c1ccc(C2COC3(C2)CN(CC2CCc4ccccc42)C3)cc1 (centres unmarked) [Example 359, 2-((2,3-dihydro-1H-inden-1-yl)methyl)-7-phenyl-5-oxa-2-azaspiro[3.4]octane] | 550 nM |  | 16% | 
O[C@@H](CO[C@@H]1CCCc2ccccc21)CN1CC[C@@H](Oc2ccc(F)cc2)C1 [Example 53, (R)-1-((R)-3-(4-fluorophenoxy)pyrrolidin-1-yl)-3-(((R)-1,2,3,4-tetrahydronaphthalen-1-yl)oxy)propan-2-ol] | 230 nM | 1930 nM |  | 
c1ccc(O[C@H]2COC3(CCN(C[C@H]4CCc5ccccc54)CC3)C2)cc1 (single isomer, unassigned) [Compound 381] | 20 nM | 290 nM |  | 
COc1ccc2c(c1)C(CN1CC3(CC(Oc4ccc(F)cc4)CO3)C1)CC2 (centres unmarked) [Example 369, 7-(4-fluorophenoxy)-2-((6-methoxy-2,3-dihydro-1H-inden-1-yl)methyl)-5-oxa-2-azaspiro[3.4]octane] | 290 nM |  |  | 64%
O[C@@H](COC1CCCCC1)CN1CCC2(CCN(c3ccccc3)C2)C1 (stereo partly drawn) [Example 346, (2R)-1-(cyclohexyloxy)-3-(7-phenyl-2,7-diazaspiro[4.4]nonan-2-yl)propan-2-ol] | 270 nM | 320 nM |  | 
Fc1ccc(COC2CCN(CC3CCOc4ccccc43)CC2)cc1 (centres unmarked) [Example 249, 1-(chroman-4-ylmethyl)-4-((4-fluorobenzyl)oxy)piperidine] | 210 nM | 630 nM |  | 
O=C1Nc2ccccc2CC12CCN(C[C@@H](O)COc1ccccc1)CC2 [Example 446, (R)-1-(2-hydroxy-3-phenoxypropyl)-1′,4′-dihydro-2′H-spiro[piperidine-4,3′-quinolin]-2′-one] | 610 nM |  | 11% | 
Fc1ccc(OC2CCCN(CC3CCc4ccccc43)CC2)cc1 (centres unmarked) [Example 271, 1-((2,3-dihydro-1H-inden-1-yl)methyl)-4-(4-fluorophenoxy)azepane] | 230 nM |  | 44% | 
OC1(CN2CC[C@H](Oc3ccc(F)cc3)C2)COCc2ccccc21 (stereo partly drawn) [Example 10, 4-(((S)-3-(4-fluorophenoxy)pyrrolidin-1-yl)methyl)isochroman-4-ol] | 310 nM |  | 3% | 
O[C@@H](CO[C@H]1CCc2ccccc21)CN1CCC(Oc2ccc(F)cc2)CC1 [Example 238, (R)-1-(((S)-2,3-dihydro-1H-inden-1-yl)oxy)-3-(4-(4-fluorophenoxy)piperidin-1-yl)propan-2-ol] | 240 nM |  | 47% | 
COc1ccc2c(c1)C(CN1CCC(Oc3ccncc3)CC1)CC2 (centres unmarked) [Example 117, 4-((1-((6-methoxy-2,3-dihydro-1H-inden-1-yl)methyl)piperidin-4-yl)oxy)pyridine] | 580 nM |  | 1% | 
OC(COC1CCCCC1)CN1C[C@H]2C[C@@H](C1)N2c1ccccc1 (stereo partly drawn) [Example 294, 1-(cyclohexyloxy)-3-((1R,5S)-6-phenyl-3,6-diazabicyclo[3.1.1]heptan-3-yl)propan-2-ol] | 280 nM |  |  | 47%
O=C1c2ccccc2CCN1CCN1CCC2(CCc3ccccc3O2)CC1 [Example 422, 2-(2-(spiro[chromane-2,4′-piperidin]-1′-yl)ethyl)-3,4-dihydroisoquinolin-1(2H)-one] | 70 nM | 400 nM |  | 
Clc1ccccc1OCCN1CCN(c2nsc3ccccc23)CC1 [Example 69, 3-(4-(2-(2-chlorophenoxy)ethyl)piperazin-1-yl)benzo[d]isothiazole] | 3 nM |  |  | 91%
